Values joined by “and” are separate entries in the source; they are usually repeats but may differ in a detail not shown here. Equal values may be shown once.

The text below walks through data of patent US9636323B2, “Method of treating cancer that overexpresses TopBP1” (Baylor College of Medicine, priority 2014, dated 2017).

For one data set, the system named is mutp53/p73 interaction. The data set is described as follows: Anti-p73 immunoprecipitation in MDA-MB468 cells. The data set is classed as cell-based, human. The settings on record: 2.5 μM, 5 h. On the procedure:
(§1) MDA-MB468 cells were lysed with TNN buffer (Liu et al. 2003). An aliquot of cell lysates was lysed with SDS lysis buffer and the rest of cell lysates were incubated with appropriate antibodies or beads at 4° C. for 3-12 h. Anti-FLAG beads (Sigma) were washed three times with TNN buffer. Immunoprecipitates were fractionated by SDS-PAGE and electro-transferred to Immobilon-P membrane (Millipore). Equal amount of protein loading was validated with Ponceau-S staining. The specific signals were detected by incubating with appropriate antibody. All primary antibodies were used at 1:1000 dilution and horseradish peroxidase (HRP)-conjugated secondary antibodies were used at 1:5000 dilution for immunoblotting. E2F1 (C-20 and KH-95), p53 (FL393), p63 (4A4 and H-129), p73 (H-79), p21 (C-19), Bax (N-20), GST (B-14), c-Myc (A14), Miz1 (H-190), Chk1 (G4), Actin (C-2) and GAPDH (6C5) antibodies were purchased from Santa Cruz. TopBP1 (mouse monoclonal) and Aid antibodies were purchased from BD Transduction Laboratories. TopBP1 (BL893, Rabbit polyclonal) antibody was purchased from Bethyl. Mouse monoclonal anti-phospho-γH2AX was purchased from Millipore. Phospho-Chk1 (Ser345) antibody was purchased from Cell signaling. FLAG (F7425) antibody was purchased from Sigma. Mouse monoclonal anti-p73 (IMG-246) was purchased from IMGENEX.

In data set [1] the test system is E2F sites of the p68 subunit of DNA polymerase α promoter. Briefly: pKL12 / pKL12-E2FAB promoter construct assay. The data set is classed as cell-based. The settings on record: wild-type versus mutated E2F sites.
The test system of the next data set is MCF7 cells. The data set is described as follows: MTS assay, MCF7. The format is cell-based, human. The settings on record: increasing concentrations, 5 h, versus MCF10A. On the procedure:
(§2) Then 50 μl of MTS reagent (CellTiter 96® AQueous One Solution Cell Proliferation Assay, Promega) was added to each well, covered from light and incubated for 1 h at 37.0 incubator to develop purple color. The samples were measured at 490 nm in a plate reader (BioTek Synergy HT) against a blank 48-well plate. Each assay was done in triplicate.
For orientation: Tetrazolium dyes change colour on reduction, which living cells bring about.

Another data set relates to MCF10A cells. Briefly: MTS assay, MCF10A. The format is cell-based, human. The settings on record: co-treated with doxorubicin, Calcein AM 2.5 μM, 5 h. As for the experimental part:
as §2

In data set [2] the test system is MDA-MB468 cells. Briefly: Mammosphere formation. The data set is classed as cell-based, human. Particulars: 2.5 μM, 11 days. On the procedure: For in vitro mammosphere culture, ˜5000 MDA-MB468 cells/well were seeded into a Ultra-low Adherent 6-well plate (Stem Cell Technologies) with 2 ml/well fresh complete MammoCult™ medium (Stem Cell Technologies) containing the MammoCult® Basal Medium, MammoCult® Proliferation Supplement, 4 μg/ml Heparin (Stem Cell Technologies) and fresh 0.48 μg/ml Hydrocortisone. Cells were incubated in a 5% CO2 incubator at 37° C. for 7-11 days. […] Each treatment was done in triplicate.

Data set [3] has as its system MDA-MB468 cells. Briefly: Colony formation assay. The data set is classed as cell-based, human. The settings on record: 16 h treatment, then 8 days without drug. As for the experimental part:
MDA-MB468 cells were plated in 6-well plates at 200 cells/well. […] Cells were grown in fresh media without drugs for additional 8 days to form colonies, when each colony contained more than 50 cells. Plates were then stained with […] crystal violet (0.5 g Crystal violet, 25 ml methanol and 75 ml H2O). Cell number was counted.

The test system of data set [4] is SKOV-3 ovarian cancer cells. Briefly: MTS assay, SKOV-3. The data set is classed as cell-based, human. On the procedure: as §2
The test system of data set [5] is RPMI 8226 myeloma cell line. The data set is described as follows: MTS assay, RPMI 8226. The data set is classed as cell-based, human. The settings on record: Calcein AM 2.5 μM, 12 h, mutp53(E285K). As for the experimental part:
as §2

A further data set deals with HEK293 cells. Briefly: Caspase-Glo 3/7 activity assay, HEK293. The format is cell-based, human. Particulars: 2.5 μM overnight. As for the experimental part:
(§3) The apoptosis was measured by Caspase-Glo® 3/7 assay (Promega) following the manufacturer's protocol. The cells were plated in 6-well tissue culture dish (10^4 cells/well) (BD Falcon) in respective media. […] The blank reactions were prepared per direction. Equal volume of Caspase-Glo® 3/7 reagents were applied to each well. A luminometer (Sirius) was used to quantitate luminescence.
To prepare TopBP1 knockdown stable cell line, MDA-MB468 cells were infected with lentivirus expressing TopBP1 shRNA (Liu et al. 2011) as well as scramble shRNA, separately. The infected cells were grown for 48 h followed by selection with puromycin (2 μg/ml). After selection, the knockdown was confirmed by Western blotting before further experiments. Two different pLKO-shTopBP1 (#1 and #2) constructs (Open Biosystems, RHS4533-NM_007027) were used to deplete TopBP1 in MDA-MB468 cells. Additional two pSuper-shTopBP1 constructs (Liu et al. 2004) were used to knock down TopBP1 in HEK293 cells. Two pSuper-shE2F1 constructs were used to deplete E2F1: shE2F1#1 (described previously (Liu et al. 2004)), and shE2F1#2 (target sequence 5′-[…]-3′). The target sequence for pSuperior-shE2F1 is the same as pSuper-shE2F1#1. To deplete p63, shp63alpha pLKO.1-puro (from Addgene, 19120) was used. TP73 MISSION shRNA (shp73 pLKO.1-puro) was purchased from Sigma (TRCN00002722587).

For a further data set, the system named is MDA-MB468. The data set is described as follows: DNA damage signals (pS15-p53, γ-H2AX) in MDA-MB468. The settings on record: up to 10 μM. The format is cell-based, human. As for the experimental part: as §1
Data set [6] relates to TopBP1 checkpoint activation (Chk1). Briefly: HU-induced Chk1 activation. The data set is classed as cell-based. On the procedure:
as §1

The test system of data set [7] is 4T1 mouse breast tumor cells. Briefly: Apoptosis in mouse tumor cells. The data set is classed as cell-based. As for the experimental part:
as §3

The test system of data set [8] is primary leukemia cells from a patient with T cell acute lymphoblastic leukemia. Briefly: Caspase 3/7 activation assay, primary leukemia cells. The data set is classed as cell-based. Particulars: 2.5 μM, 7 hours. As for the experimental part: as §3
For another data set, the system named is BT549. The settings on record: NCI-DTP database; cited from earlier work.
For a further data set, the system named is NCI-H23. The settings on record: NCI-DTP database; cited from earlier work.
For the next data set, the system named is NCI-H522. The settings on record: NCI-DTP database; cited from earlier work.

As for `CC(=O)OCOC(=O)CN(CC(=O)OCOC(C)=O)Cc1cc2c(cc1OC(C)=O)Oc1cc(OC(C)=O)c(CN(CC(=O)OCOC(C)=O)CC(=O)OCOC(C)=O)cc1C21OC(=O)c2ccccc21` [Calcein AM, Calcein AM (acetoxymethyl ester)], in the data set with mutp53/p73 interaction, the “binding of p73 to mutp53” value was “release of p73 from mutp53”. Further, the “induction of promoter activity on pKL12 and pKL12-E2FAB” value in data set [1] was “could only induce the activity on pKL12, but not on pKL12-E2FAB”. In addition, the “proliferation (MTS)” value is recorded as “preferentially inhibited the proliferation” in the data set on MCF7 cells; “inhibited the proliferation” in [4] (Calcein AM 5 μM in combination with cisplatin 20 μM, 20 h); “inhibited the proliferation” in [4] (Calcein AM alone, overnight). For the same compound, the “doxorubicin sensitivity (MTS)” value in the data set with MCF10A cells is given as “not”; in [5], “sensitized cells to doxorubicin”. Besides, in the data set with MDA-MB468 cells [2], the mammosphere formation entry is on record as “blocked”. The “concentration at which inhibition of colony formation was apparent” value in the data set with MDA-MB468 cells [3] is ≥ 0.1 µM. In addition, the entries for the “apoptosis (caspase 3/7 activity)” value in the data set with HEK293 cells and in the data set on HEK293 cells (TopBP1-depleted HEK293 cells) were “induced apoptosis” and “could not induce more apoptosis”, respectively. For the same compound, in the data set with MDA-MB468, the “DNA damage (pS15-p53 or γ-H2AX signal)” value was “did not see evidence of DNA damage”. For the same compound, the “HU-induced Chk1 activation” value in data set [6] is on record as “did not block HU-induced Chk1 activation”. In addition, the apoptosis result in [7] is listed as “induced apoptosis”. Further, the “cell killing (caspase 3/7 activation)” value in data set [8] is “active in killing”. For the same compound, the concentration for 50% growth inhibition (GI50) (in general, the concentration that inhibits growth by half) in the data set on BT549 was < 400 nM and 270 nM; in the data set with NCI-H23 it was < 1000 nM; with NCI-H522 it was < 1000 nM.
